Numbered stars: 1 amine (or outer) side, 2 acyl side, 3 side chain; on linkers, the order of the positions; unused ones are H or OH. Bridge positions count the residues as written; N and C are the ends. Square brackets hold non-standard residues; d marks the D form. Peptide text beside a SMILES is read from it. * marks the point of attachment. hPhe(3,5-F2-4-CF3) = N[C@@H](CCc1cc(F)c(C(F)(F)F)c(F)c1)C(=O)O; hPhe(3-Cl-4-CF3) = N[C@@H](CCc1ccc(C(F)(F)F)c(Cl)c1)C(=O)O; hPhe(3-F,4-CF3) = N[C@@H](CCc1ccc(C(F)(F)F)c(F)c1)C(=O)O; NEtPhe(4-Me) = CCN[C@@H](Cc1ccc(C)cc1)C(=O)O; NMePhe(4-Cl) = CN[C@@H](Cc1ccc(Cl)cc1)C(=O)O; NMePhe(4-Me) = CN[C@@H](Cc1ccc(C)cc1)C(=O)O; X116 = O=C([C@H](CCc1cccc(F)c1)N[*:1])[*:2]; X99 = O=C([C@H](CCc1ccc(F)cc1F)N[*:1])[*:2]; NMePhe(4-F) = CN[C@@H](Cc1ccc(F)cc1)C(=O)O; NMedβ3hAla = C[C@H](CC(=O)[*:2])N(C)[*:1]; Gly(Nα-CH2(4-Pyr)) = O=C(O)CNCc1ccncc1; NMeGly(cPent) = CN[C@H](C(=O)O)C1CCCC1; Ala(cPent) = N[C@@H](CC1CCCC1)C(=O)O; NMeCha = CN[C@@H](CC1CCCCC1)C(=O)O; Hyp = O=C(O)[C@@H]1C[C@@H](O)CN1; NEtLeu = CCN[C@@H](CC(C)C)C(=O)O; NMeChg = CN[C@H](C(=O)O)C1CCCCC1; NMeF = CN[C@@H](Cc1ccccc1)C(=O)O; NMeI = CC[C@H](C)[C@H](NC)C(=O)O; NMeD = CN[C@@H](CC(=O)O)C(=O)O; NMeL = CN[C@@H](CC(C)C)C(=O)O; Cba = N[C@@H](CC1CCC1)C(=O)O; NMeV = CN[C@H](C(=O)O)C(C)C; d(β3hA) = C[C@@H](N)CC(=O)O; NMeA = CN[C@@H](C)C(=O)O; Piperidide = C1CCN(*)CC1; Pyrrolidide = C1CCN(*)C1; dNMeA = CN[C@H](C)C(=O)O; Ac5c = NC1(C(=O)O)CCCC1; Aze = O=C(O)[C@@H]1CCN1; Ac4c = NC1(C(=O)O)CCC1; NEtG = CCNCC(=O)O; Sar = CNCC(=O)O

For the assay, the target named is protein-protein interaction between Kras and SOS1 (biotin-tagged human Kras loaded with GDP, His-tagged human SOS1) (Homo sapiens (Human), UniProt P01116, G12D). Description: Protein-protein interaction inhibition between Kras and SOS1 (KrasG12D-SOS PPI) using AlphaScreen.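 Note: kras produced in E. coli, Ni-coupled donor beads and streptavidin acceptor beads, excitation 680 nm with emission detected at 520–620 nm via singlet oxygen transfer.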 Type of assay: biochemical. As to conditions: AlphaScreen; biotin-tagged human Kras loaded with GDP, His-tagged human SOS1; read-out: KRAS G12D-SOS PPI IC50. (Alpha assays give light when donor and acceptor beads are brought close together.)
In general, IC50 refers to the midpoint of a concentration-inhibition curve. As to `CC[C@H](C)[C@@H]1NC(=O)[C@H](C)N(C)C(=O)C[C@@H](C)NC(=O)[C@H](CC(C)C)N(C)C(=O)[C@H](Cc2ccccc2)N(C)C(=O)[C@H](CC(C)C)NC(=O)[C@H](CCc2ccc(F)cc2F)NC(=O)CN(C)C(=O)[C@H](Cc2ccc(Cl)cc2)N(C)C(=O)CN(C)C(=O)CN(C)C1=O` [Compound 2089] (cyclo(I[Sar][Sar][NMePhe(4-Cl)][Sar][X99]L[NMeF][NMeL][d(β3hA)][NMeA])), the half-inhibitory concentration (IC50) came to 300 nM. Regarding `CC[C@H](C)[C@@H]1NC(=O)[C@H](CC(C)C)N(C)C(=O)C[C@@H](C(=O)N2CCCCC2)N(C)C(=O)[C@H](C(C)C)N(C)C(=O)C2(CCCC2)NC(=O)[C@@H]2CCCN2C(=O)[C@H](CCc2ccc(C(F)(F)F)c(Cl)c2)NC(=O)CN(C)C(=O)[C@H](CC2CCCCC2)N(C)C(=O)[C@@H]2CCN2C(=O)[C@H](CC(C)C)N(C)C1=O` [Compound 1558] ([NMeL]I[NMeL][Aze][NMeCha][Sar][hPhe(3-Cl-4-CF3)]P[Ac5c][NMeV][NMeD]-Piperidide; lactam N-11), the IC50 was found to be 71 nM. Under `CC[C@H](C)[C@@H]1NC(=O)[C@H](CC(C)C)N(C)C(=O)C[C@@H](C(=O)N2CCCCC2)N(C)C(=O)[C@H](C2CCCCC2)N(C)C(=O)C2(CCCC2)NC(=O)CN(CC)C(=O)[C@H](CCc2ccc(C(F)(F)F)c(Cl)c2)NC(=O)CN(C)C(=O)[C@H](CC2CCCCC2)N(C)C(=O)CN(C)C(=O)CN(C)C1=O` [Compound 160] ([NMeL]I[Sar][Sar][NMeCha][Sar][hPhe(3-Cl-4-CF3)][NEtG][Ac5c][NMeChg][NMeD]-Piperidide; lactam N-11) stands 1 nM; under `CCO[C@@H]1C[C@H]2C(=O)NC3(CCC3)C(=O)N(C)[C@@H](C3CCCCC3)C(=O)N(C)[C@H](C)CC(=O)N(C)[C@@H](CC(C)C)C(=O)N[C@@H]([C@@H](C)CC)C(=O)N(C)[C@@H](C)C(=O)N3CC[C@H]3C(=O)N(CC)[C@@H](Cc3ccc(C)cc3)C(=O)N(C)CC(=O)N[C@@H](CCc3cc(F)c(C(F)(F)F)c(F)c3)C(=O)N2C1` [Compound 724] (cyclo([Ac4c][NMeChg][NMedβ3hAla][NMeL]I[NMeA][Aze][NEtPhe(4-Me)][Sar][hPhe(3,5-F2-4-CF3)][Hyp](Et))), 24 nM; under `CC[C@H](C)[C@@H]1NC(=O)[C@H](CC(C)C)N(CC)C(=O)C[C@@H](C)NC(=O)[C@H](C2CCCC2)N(C)C(=O)C2(CCCC2)NC(=O)[C@@H]2CCCN2C(=O)[C@H](CCc2ccc(C(F)(F)F)c(Cl)c2)NC(=O)CN(C)C(=O)[C@H](Cc2ccc(C)cc2)N(C)C(=O)[C@@H]2CCN2C(=O)[C@H](C)N(C)C1=O` [Compound 531] (cyclo([Ac5c][NMeGly(cPent)][d(β3hA)][NEtLeu]I[NMeA][Aze][NMePhe(4-Me)][Sar][hPhe(3-Cl-4-CF3)]P)), 1.6 nM. With `CC[C@H](C)[C@@H]1NC(=O)[C@H](CC(C)C)N(C)C(=O)C[C@@H](C(=O)N2CCCCC2)N(C)C(=O)[C@H](C2CCCCC2)N(C)C(=O)C2(CCCC2)NC(=O)CN(Cc2ccncc2)C(=O)[C@H](CCc2ccc(C(F)(F)F)c(Cl)c2)NC(=O)CN(C)C(=O)[C@H](CC2CCCCC2)N(C)C(=O)CN(C)C(=O)CN(C)C1=O` [Compound 2033] ([NMeL]I[Sar][Sar][NMeCha][Sar][hPhe(3-Cl-4-CF3)][Gly(Nα-CH2(4-Pyr))][Ac5c][NMeChg][NMeD]-Piperidide; lactam N-11 (inferred); C-terminus assumed) the figure was 0.65 nM. Take `CC(C)C[C@H]1C(=O)N[C@@H](CC2CCCC2)C(=O)N(C)[C@@H](C)C(=O)N2CC[C@H]2C(=O)N(C)[C@@H](CC2CCCCC2)C(=O)N(C)CC(=O)N[C@@H](CCc2ccc(C(F)(F)F)c(Cl)c2)C(=O)N2CCC[C@H]2C(=O)NC2(CCCC2)C(=O)N(C)[C@@H](C(C)C)C(=O)N(C)[C@H](C(=O)N2CCCCC2)CC(=O)N1C` [Compound 84] ([NMeL][Ala(cPent)][NMeA][Aze][NMeCha][Sar][hPhe(3-Cl-4-CF3)]P[Ac5c][NMeV][NMeD]-Piperidide; lactam N-11): the IC50 turned out to be 73 nM. On to `CC[C@H](C)[C@@H]1NC(=O)[C@H](CC(C)C)N(C)C(=O)C[C@@H](C(=O)N2CCCC2)N(C)C(=O)[C@H]([C@@H](C)CC)N(C)C(=O)C2(CCCC2)NC(=O)[C@@H]2CCCN2C(=O)[C@H](CCc2ccc(C(F)(F)F)c(F)c2)NC(=O)CN(C)C(=O)[C@H](CC2CCCCC2)N(C)C(=O)[C@@H]2CCN2C(=O)[C@H](C)N(C)C1=O` [Compound 868] ([NMeL]I[NMeA][Aze][NMeCha][Sar][hPhe(3-F,4-CF3)]P[Ac5c][NMeI][NMeD]-Pyrrolidide; lactam N-11), for which the IC50 was found to be 2.9 nM. Under `CC(C)C[C@H]1C(=O)N[C@@H](CC2CCC2)C(=O)N(C)[C@@H](C)C(=O)N2CC[C@H]2C(=O)N(C)[C@@H](CC2CCCCC2)C(=O)N(C)CC(=O)N[C@@H](CCc2ccc(C(F)(F)F)c(Cl)c2)C(=O)N2CCC[C@H]2C(=O)NC2(CCCC2)C(=O)N(C)[C@@H](C(C)C)C(=O)N(C)[C@H](C(=O)N2CCCCC2)CC(=O)N1C` [Compound 733] ([NMeL][Cba][NMeA][Aze][NMeCha][Sar][hPhe(3-Cl-4-CF3)]P[Ac5c][NMeV][NMeD]-Piperidide; lactam N-11) stands 51 nM; under `CC[C@H](C)[C@@H]1NC(=O)[C@H](CC(C)C)N(C)C(=O)C[C@@H](C(=O)N2CCCCC2)N(C)C(=O)[C@H]([C@@H](C)CC)N(C)C(=O)C2(CCCC2)NC(=O)[C@@H]2CCCN2C(=O)[C@H](CCc2ccc(C(F)(F)F)c(Cl)c2)NC(=O)CN(C)C(=O)[C@H](Cc2ccc(F)cc2)N(C)C(=O)[C@@H]2CCN2C(=O)[C@H](C)N(C)C1=O` [Compound 1060] ([NMeL]I[NMeA][Aze][NMePhe(4-F)][Sar][hPhe(3-Cl-4-CF3)]P[Ac5c][NMeI][NMeD]-Piperidide; lactam N-11), 0.65 nM; under `CC[C@H](C)[C@@H]1NC(=O)[C@H](CC(C)C)N(C)C(=O)C[C@@H](C)NC(=O)[C@H](C2CCCC2)N(C)C(=O)C2(CCCC2)NC(=O)[C@@H]2CCCN2C(=O)[C@H](CCc2ccc(C(F)(F)F)c(Cl)c2)NC(=O)[C@@H](C)N(C)C(=O)[C@H](Cc2ccc(C)cc2)N(C)C(=O)[C@@H]2CCN2C(=O)[C@H](C)N(C)C1=O` [Compound 1504] (cyclo([Ac5c][NMeGly(cPent)][d(β3hA)][NMeL]I[NMeA][Aze][NMePhe(4-Me)][dNMeA][hPhe(3-Cl-4-CF3)]P)), 57 nM.

Take `CCO[C@@H]1C[C@H]2C(=O)NC3(CCCC3)C(=O)N(C)[C@@H](CC(C)C)C(=O)N(C)[C@H](C(=O)N3CCCC3)CC(=O)N(C)[C@@H](CC(C)C)C(=O)N[C@@H]([C@@H](C)CC)C(=O)N(C)CC(=O)N(C)CC(=O)N(C)[C@@H](CC3CCCCC3)C(=O)N(C)CC(=O)N[C@@H](CCc3ccc(C(F)(F)F)c(Cl)c3)C(=O)N2C1` [Compound 1748] ([NMeL]I[Sar][Sar][NMeCha][Sar][hPhe(3-Cl-4-CF3)][Hyp](Et)[Ac5c][NMeL][NMeD]-Pyrrolidide; lactam N-11): the IC50 is 0.61 nM. With `CC[C@H](C)[C@@H]1NC(=O)[C@H](C)N(C)C(=O)C[C@@H](C(=O)N2CCCCC2)N(C)C(=O)[C@H](C(C)C)N(C)C(=O)C2(CCCC2)NC(=O)[C@@H]2CCCN2C(=O)[C@H](CCc2cccc(F)c2)NC(=O)CN(C)C(=O)[C@H](CC2CCCCC2)N(C)C(=O)[C@@H]2CCN2C(=O)[C@H](C)N(C)C1=O` [Compound 685] ([NMeA]I[NMeA][Aze][NMeCha][Sar][X116]P[Ac5c][NMeV][NMeD]-Piperidide; lactam N-11), the IC50 stood at 130 nM.

For the origin of these results see US20240148821A1, “PHARMACEUTICAL USE OF CYCLIC PEPTIDE COMPOUND” (CHUGAI SEIYAKU KABUSHIKI KAISHA, priority 2021, published 2024).
